Test results published in patent US4675319A, “Antianaphylactic and antibronchospastic piperazinyl-(N-substituted phenyl)carboxamides, compositions and use” (Recordati S. A. Chemical and Pharmaceutical Company, priority 1985, dated 1987).
Where a name gives a salt, the structure may show the parent alone. Read-outs that look alike come from different tables or passages of the source.

Key:
[1] = Acute toxicity LD50 in the mouse (method of Weil); details: in vivo
From the text: (§1) The novel compounds of the present invention are characterized by high antianaphylactic and antibronchospastic activity and by a low toxicity. The LD50 of the novel piperazine derivatives has been determined in the mouse, both ip and per os, following the method described by C. S. Weil, Biometrics, 8, 249 (1952). In order to evaluate the antianaphylactic activity of said novel compounds, the method of Goose and Blair was followed, in which passive cutaneous anaphylaxis (PCA) was induced in the rat with homologous antibodies [Immunology, 16, 749, (1969)].
(§2) In the Table which follows, the results obtained utilizing the above tests are reported. The LD50 and the DE50 in the PCA test are expressed in […]. The DE50 for the antibronchospastic activity (BSP) is expressed in μm/kg i.v. (bronchospasm induced by histamine (H) and acetylcholine (A)). In the TXA2 test, (C) is the concentration in μg/ml, whereas (I%) denotes the maximal inhibition percentage. In the PLA test, the DE50 is expressed in μM/kg i.v. (evaluated 5 and 10 minutes after administration).

[2] = test system: passive cutaneous anaphylaxis (PCA); assay: Passive cutaneous anaphylaxis (PCA) in the rat with homologous antibodies (method of Goose and Blair); format: in vivo; details: 0.5 h, inhibition of spots areas, 30 minutes after challenge
From the text: as §1
Female albino rate were immunized intramuscularly with egg albumin and intraperitoneally with Haemophylus pertussis vaccine. Twelve days after treatment, the animals were bled and sera thus obtained were injected intradermally into another group of rats. Twenty-four hours later, the animals were challenged with an i.v. solution of ovoalbumin and Evans blue dye, and sacrificed after 30 minutes. The test drugs were given by different routes of administration and at different times before the challenge. Inhibition of spots areas (ED50) was determined.
as §2

[3] = test system: bronchospasm induced by histamine; assay: Inhibition of bronchospasm (BSP) induced by histamine in anaesthetized guinea pig (Konzett and Roessler); format: in vivo; details: Cavia porcellus, iv, 1 min, histamine 0.5-25 μg/kg i.v., one minute after injection of drug, read-out: BSP, ED50 H
Procedure: (§3) The antibronchospastic activity was determined according to the method of Konzett and Roessler, Arch., Exp. Path. Pharmakol., 195, 71 (1940), entailing the inhibition of bronchospasm induced in anaesthesized guinea pig by histamine and acetylcholine. For this purpose, the bronchospasms were induced by administering intravenously to the animals 0.5-25 μg/kg of hystamine or 2.5-10 μg/kg of acetylcholine. Inhibition (ED50) was determined one minute after injection of the drug under test.
as §2

[4] = test system: passive lung anaphylaxis (PLA); assay: Passive lung anaphylaxis (PLA): antigen induced bronchoconstriction in passively sensitized rat (method of Greenberg et al); format: in vivo; details: iv, i.v.
Procedure: Inhibition of passive lung anaphylaxis (PLA) was studied in a model of antigen induced bronchoconstriction in sensitized rat, according to the method described by Greenberg et al, Can. J. Physiol. Pharmacol., 57, 48 (1979). Female albino rate were passively sensitized by intravenous injection of homologous anti-egg albumin serum. Twenty-four hours later the rats were anaesthetized with pentobarbital (35 mg/kg i.p.) and spontaneous respiration was arrested by administration of tubocurarine (0.75 mg/kg i.v.).
Bronchocostriction was induced by egg albumin intravenously administered and measured by the Konzett and Roessler method Arch. Exp. Path. Pharmakol., 195, 71, (1940). The compounds were injected intravenously one minute before antigen challenge. The inhibitory effect (ED50) was evaluated 5 and 10 minutes after i.v. administration of the drugs under test.
as §2

[5] = test system: bronchospasm induced by acetylcholine; assay: Inhibition of bronchospasm (BSP) induced by acetylcholine in anaesthetized guinea pig (Konzett and Roessler); format: in vivo; details: Cavia porcellus, iv, 1 min, acetylcholine 2.5-10 μg/kg i.v., one minute after injection of drug
Procedure: as §3, §2

TXA2 = TXA2 inhibition in perfused guinea-pig lungs challenged with bradykinin (method of Berti et al); details: C = 10 μg/ml, bradykinin 0.25-0.5 μg
Procedure: The TXA2 inhibition was evaluated according to the method of Berti et al Brit. J. Pharmacol., 68, 467 (1980). Lungs from female or male guinea-pigs were perfused through the pulmonary artery with Krebs bicarbonate (5 ml/min, 37° C.). The pulmonary outflow superfused strips of rabbit mesenteric artery and rabbit aorta in cascade, in order to monitor TXA2 activity. These tissues were superfused with a mixture of receptor antagonist and indomethacin to […] their selectivity and sensitivity. Lungs were challenged with a single injection of bradykinin (0.25-0.5 μg) which is known to increase generation of TXA2 from the pulmonary tissue. The novel compounds of the invention were perfused at different concentrations through the lungs 30 and 60 minutes before agonists.
as §2

[6] = 5 min, evaluated 5 minutes after administration, read-out: PLA, ED50 5'
[7] = 10 min, evaluated 10 minutes after administration, read-out: PLA, ED50 10'

SMILES	LD50 ([1]; ip, read-out: LD50 ip) [µmol/kg]	LD50 ([1]; po, per os, read-out: LD50 os) [µmol/kg]	ED50 [2] [µmol/kg]	ED50 [3] [µmol/kg]	ED50 [4, 6] [µmol/kg]	ED50 [4, 7] [µmol/kg]	ED50 [5] [µmol/kg]	TXA2 I % (maximal inhibition percentage) (TXA2) [%]
CNc1cccc(NC(=O)CCN2CCN(C(c3ccccc3)c3ccccc3)CC2)c1 [Compound 1, 3-(4-benzhydryl-1-piperazinyl)-N,3-methylaminophenylpropionamide]	240	580	13	0.25	–	–	–	–
CN(C)c1cccc(NC(=O)CCN2CCN(C(c3ccccc3)c3ccccc3)CC2)c1 [Compound 2, 3-(4-benzhydryl-1-piperazinyl)-N,3-dimethylaminoophenylpropionamide trihydrochloride hemihydrate]	260	340	> 69	–	–	–	–	–
CN(C)c1ccc(NC(=O)CCN2CCN(C(c3ccccc3)c3ccccc3)CC2)cc1 [Compound 3, 3-(4-benzhydryl-1-piperazinyl)-N,4-dimethylaminophenylpropionamide]	–	> 7000	25	1.1	0.02	0.02	0.8	–
Nc1cccc(NC(=O)CCN2CCN(C(c3ccccc3)c3ccccc3)CC2)c1 [Compound 4, 3-(4-benzhydryl-1-piperazinyl)-N,3-aminophenylpropionamide]	–	5000	8	0.21	0.04	0.08	0.4	47
Nc1ccc(NC(=O)CCN2CCN(C(c3ccccc3)c3ccccc3)CC2)cc1 [Compound 5, 3-(4-benzhydryl-1-piperazinyl)-N,4-aminophenylpropionamide]	–	7200	28	0.23	–	–	–	–
CN(C(=O)CCN1CCN(C(c2ccccc2)c2ccccc2)CC1)c1cccc(N)c1 [Compound 6, 3-(4-benzhydryl-1-piperazinyl)-N,3-aminophenvl-N-methylpropionamide]	> 2330	> 7000	10	0.12	0.65	0.69	0.4	0.8
CNC(=O)Nc1ccc(NC(=O)CCN2CCN(C(c3ccccc3)c3ccccc3)CC2)cc1 [Compound 7, 3-(4-benzhydryl-1-piperazinyl)-N,4-methylureidophenylpropionamide]	1750	> 5900	73	–	–	–	–	–
CN(C)c1ccc(NC(=O)CCCN2CCN(C(c3ccccc3)c3ccccc3)CC2)cc1 [Compound 8]	230	430	10	1.1	0.84	0.84	> 3	–
